Activity calls are given as the source filed them. No cut-off for these calls is given here.
Tests used:
[1] = target: T1, 5-hydroxytryptamine receptor 4 (Rattus norvegicus, UniProt Q62758); assay: Antagonism at 5HT4 receptor in rat tunica muscularis mucosa; assay type: functional, tissue-based; details: read-out: pA2 (converted)
[2] = target: T2, Serotonin 3 (5-HT3) receptor (Rattus norvegicus, UniProt P35563+Q9JJ16); assay: Displacement of [3H]GR65630 from 5HT3 receptor in brain cortex from Wistar rat; assay type: tissue-based
T2 sequence (P35563 whole entry): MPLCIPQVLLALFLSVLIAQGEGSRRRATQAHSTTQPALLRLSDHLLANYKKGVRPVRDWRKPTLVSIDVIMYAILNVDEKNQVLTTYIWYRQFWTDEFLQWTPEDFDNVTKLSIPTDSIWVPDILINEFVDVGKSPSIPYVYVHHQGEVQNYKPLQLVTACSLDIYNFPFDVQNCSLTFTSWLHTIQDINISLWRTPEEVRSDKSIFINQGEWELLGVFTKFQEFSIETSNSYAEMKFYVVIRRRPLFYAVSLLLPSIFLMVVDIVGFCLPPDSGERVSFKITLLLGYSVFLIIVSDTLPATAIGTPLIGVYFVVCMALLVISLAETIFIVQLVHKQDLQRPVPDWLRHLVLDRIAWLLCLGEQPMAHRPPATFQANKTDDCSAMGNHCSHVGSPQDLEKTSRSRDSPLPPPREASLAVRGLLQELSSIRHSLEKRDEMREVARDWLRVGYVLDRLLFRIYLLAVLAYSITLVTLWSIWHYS
T2 sequence (Q9JJ16 whole entry): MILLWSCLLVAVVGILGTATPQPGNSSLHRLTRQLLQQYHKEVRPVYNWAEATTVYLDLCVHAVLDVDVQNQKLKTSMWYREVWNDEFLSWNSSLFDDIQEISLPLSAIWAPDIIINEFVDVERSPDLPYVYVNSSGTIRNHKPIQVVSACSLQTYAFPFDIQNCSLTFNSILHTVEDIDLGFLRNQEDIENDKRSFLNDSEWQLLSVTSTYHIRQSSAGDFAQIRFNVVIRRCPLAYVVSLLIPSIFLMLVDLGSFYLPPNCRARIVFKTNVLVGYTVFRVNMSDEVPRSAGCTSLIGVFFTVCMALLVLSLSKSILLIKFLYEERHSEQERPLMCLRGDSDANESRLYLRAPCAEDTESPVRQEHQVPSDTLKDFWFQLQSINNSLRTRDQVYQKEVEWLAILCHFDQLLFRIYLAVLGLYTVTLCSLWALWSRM

[3] = target: T3, 5-hydroxytryptamine receptor 4 (Cavia porcellus, UniProt O70528); assay: Displacement of [3H]GR-113808 from 5HT4 receptor in guinea pig striatum
D(2) dopamine receptor = D(2) dopamine receptor (Homo sapiens, UniProt P14416); assay: Binding affinity to dopamine receptor D2
[4] = target: T1, 5-hydroxytryptamine receptor 4; assay: Agonism at 5HT4 receptor in rat tunica muscularis mucosa; assay type: functional
[5] = target: T4, Serotonin 3 receptor (5HT3) (Mus musculus) (UniProt Q9JHJ5+P23979); assay: Antagonism at 5HT3 receptor in mice by von Bezold-Jarisch reflex inhibition at 10 mg/kg, ip; assay type: functional, organism-based; parameters: dose 10 mg/kg
[6] = target: T4, Serotonin 3 receptor (5HT3) (Mus musculus); assay: Antagonism at 5HT3 receptor in mice by von Bezold-Jarisch reflex inhibition at 3 mg/kg, ip; assay type: functional, organism-based; parameters: dose 3 mg/kg
[7] = target: 5-hydroxytryptamine receptor 4 (Rattus norvegicus) (UniProt Q62758); assay: Antagonism at 5HT4 receptor in rat tunica muscularis mucosa upto 100-1000 nM; assay type: functional, tissue-based
[8] = target: 5-hydroxytryptamine receptor 4 (Rattus norvegicus) (UniProt Q62758); assay: Antagonism at 5HT4 receptor in rat tunica muscularis mucosa at 0.1 uM; assay type: functional, tissue-based
[9] = target: T4, Serotonin 3 receptor (5HT3) (Mus musculus); assay: Antagonism at 5HT3 receptor in mice by von Bezold-Jarisch reflex inhibition at 1000 mg/kg, ip; assay type: functional, organism-based; parameters: dose 1000 mg/kg
Canis familiaris [10] = assay: Contractile response of the antrum in iv dosed fasted dog; assay type: functional; details: Canis lupus familiaris
Canis familiaris [11] = assay: Effect on solid gastric emptying in iv dosed dog; assay type: functional
[12] = target: T3, 5-hydroxytryptamine receptor 4; assay: Inhibition of [3H]GR-113808 binding to 5HT4 receptor in guinea pig striatum at 500 nM; assay type: tissue-based
[13] = target: T4, Serotonin 3 receptor (5HT3) (Mus musculus); assay: Antagonism at 5HT3 receptor in mice by von Bezold-Jarisch reflex inhibition at 1 mg/kg, ip; assay type: functional, organism-based; parameters: dose 1 mg/kg
Salmonella typhi [14] = assay: Mutagenic activity in a GLP study using Salmonella Typhimurium TA1535 in presence of S9 fraction at 10-5000 ug/plate; assay type: toxicity, organism-based; details: salmonella enterica subsp. enterica […]
Salmonella typhi [15] = assay: Mutagenic activity in a GLP study using Salmonella Typhimurium TA100 in presence of S9 fraction at 10-5000 ug/plate; assay type: toxicity, organism-based; details: salmonella enterica subsp. enterica […]
Salmonella typhi [16] = assay: Mutagenic activity in a GLP study using Salmonella Typhimurium TA1538 in presence of S9 fraction at 10-5000 ug/plate; assay type: toxicity, organism-based; details: salmonella enterica subsp. enterica […]
Salmonella typhi [17] = assay: Mutagenic activity in a GLP study using Salmonella Typhimurium TA97 in presence of S9 fraction at 10-5000 ug/plate; assay type: toxicity, organism-based; details: salmonella enterica subsp. enterica […]
Salmonella typhi [18] = assay: Mutagenic activity in a GLP study using Salmonella Typhimurium TA98 in presence of S9 fraction at 10-5000 ug/plate; assay type: toxicity, organism-based; details: salmonella enterica subsp. enterica […]
[19] = Binding affinity to 5HT1 receptor
D(1A) dopamine receptor = D(1A) dopamine receptor (Homo sapiens, UniProt P21728); assay: Binding affinity to dopamine receptor D1
[20] = target: Beta-1 adrenergic receptor (Homo sapiens, UniProt P08588); assay: Binding affinity to adrenergic beta-1 receptor
[21] = target: Beta-2 adrenergic receptor (Homo sapiens, UniProt P07550); assay: Binding affinity to adrenergic beta-2 receptor
[22] = target: T4, Serotonin 3 receptor (5HT3) (Mus musculus); assay: Antagonism at 5HT3 receptor in mice by von Bezold-Jarisch reflex inhibition at 0.3 mg/kg, ip; assay type: functional, organism-based; parameters: dose 0.3 mg/kg
[23] = Canis lupus familiaris, Stomach

T4 sequence (P23979 whole entry, looked up): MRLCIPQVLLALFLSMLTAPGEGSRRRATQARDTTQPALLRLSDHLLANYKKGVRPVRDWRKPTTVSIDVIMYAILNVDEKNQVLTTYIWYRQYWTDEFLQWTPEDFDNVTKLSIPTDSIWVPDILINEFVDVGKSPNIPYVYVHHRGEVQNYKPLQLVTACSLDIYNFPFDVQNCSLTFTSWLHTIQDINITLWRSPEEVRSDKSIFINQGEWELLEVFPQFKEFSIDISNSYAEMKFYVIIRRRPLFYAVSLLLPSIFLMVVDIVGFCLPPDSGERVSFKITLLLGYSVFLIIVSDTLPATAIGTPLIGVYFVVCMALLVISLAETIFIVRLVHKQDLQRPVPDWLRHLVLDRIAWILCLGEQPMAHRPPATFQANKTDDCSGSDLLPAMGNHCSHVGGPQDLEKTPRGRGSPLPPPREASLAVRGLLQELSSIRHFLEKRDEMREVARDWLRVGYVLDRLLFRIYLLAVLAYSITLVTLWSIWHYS
T4 sequence (Q9JHJ5 whole entry, looked up): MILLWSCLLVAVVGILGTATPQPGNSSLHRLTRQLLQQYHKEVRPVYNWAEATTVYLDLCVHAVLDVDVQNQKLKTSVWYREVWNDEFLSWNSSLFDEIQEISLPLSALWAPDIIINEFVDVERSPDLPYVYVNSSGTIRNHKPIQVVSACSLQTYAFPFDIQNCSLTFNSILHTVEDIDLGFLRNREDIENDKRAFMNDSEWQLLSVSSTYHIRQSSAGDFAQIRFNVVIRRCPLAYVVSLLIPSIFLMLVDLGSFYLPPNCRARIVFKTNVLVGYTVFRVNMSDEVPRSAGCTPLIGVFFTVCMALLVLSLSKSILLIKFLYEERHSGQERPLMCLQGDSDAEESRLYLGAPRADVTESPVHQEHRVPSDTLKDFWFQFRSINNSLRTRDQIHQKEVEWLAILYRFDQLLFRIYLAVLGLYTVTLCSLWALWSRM
Chain of D(2) dopamine receptor (P14416 whole entry): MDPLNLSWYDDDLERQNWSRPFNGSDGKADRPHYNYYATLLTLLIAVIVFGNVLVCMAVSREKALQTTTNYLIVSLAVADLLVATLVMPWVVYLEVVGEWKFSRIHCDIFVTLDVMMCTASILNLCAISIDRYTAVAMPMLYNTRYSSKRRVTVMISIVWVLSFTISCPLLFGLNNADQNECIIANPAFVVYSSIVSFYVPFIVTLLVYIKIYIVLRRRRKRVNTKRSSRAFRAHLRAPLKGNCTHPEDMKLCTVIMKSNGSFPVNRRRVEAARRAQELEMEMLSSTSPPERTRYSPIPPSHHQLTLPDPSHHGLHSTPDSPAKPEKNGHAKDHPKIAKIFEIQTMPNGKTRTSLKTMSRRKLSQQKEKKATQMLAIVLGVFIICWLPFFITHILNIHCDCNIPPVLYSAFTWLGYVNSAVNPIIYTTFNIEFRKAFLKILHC
Chain of 5-hydroxytryptamine receptor 4 (Rattus norvegicus) (Q62758 whole entry): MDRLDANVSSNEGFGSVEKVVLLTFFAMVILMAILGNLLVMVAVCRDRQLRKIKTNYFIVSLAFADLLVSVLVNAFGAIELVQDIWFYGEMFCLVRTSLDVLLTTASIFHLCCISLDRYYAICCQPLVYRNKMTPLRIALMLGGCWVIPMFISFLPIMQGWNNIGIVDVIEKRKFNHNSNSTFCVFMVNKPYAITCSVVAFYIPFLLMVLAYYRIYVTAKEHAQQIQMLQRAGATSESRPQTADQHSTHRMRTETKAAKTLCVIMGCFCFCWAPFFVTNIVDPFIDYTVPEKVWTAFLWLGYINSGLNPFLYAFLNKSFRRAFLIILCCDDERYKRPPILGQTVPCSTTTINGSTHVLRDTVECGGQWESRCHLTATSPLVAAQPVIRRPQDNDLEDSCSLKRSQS
T1 sequence (Q62758 whole entry): as above
T3 sequence (O70528 whole entry): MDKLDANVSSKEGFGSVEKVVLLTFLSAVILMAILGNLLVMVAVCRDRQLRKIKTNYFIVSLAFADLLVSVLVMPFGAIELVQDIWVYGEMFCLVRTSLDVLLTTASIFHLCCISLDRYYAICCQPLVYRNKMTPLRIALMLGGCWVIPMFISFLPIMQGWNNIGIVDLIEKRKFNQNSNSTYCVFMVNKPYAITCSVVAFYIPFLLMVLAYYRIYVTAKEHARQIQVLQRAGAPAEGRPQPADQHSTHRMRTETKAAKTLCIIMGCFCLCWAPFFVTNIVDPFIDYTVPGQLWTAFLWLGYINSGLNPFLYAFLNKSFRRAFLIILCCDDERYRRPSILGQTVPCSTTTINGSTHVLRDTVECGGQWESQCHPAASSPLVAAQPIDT
Chain of Beta-2 adrenergic receptor (P07550 whole entry): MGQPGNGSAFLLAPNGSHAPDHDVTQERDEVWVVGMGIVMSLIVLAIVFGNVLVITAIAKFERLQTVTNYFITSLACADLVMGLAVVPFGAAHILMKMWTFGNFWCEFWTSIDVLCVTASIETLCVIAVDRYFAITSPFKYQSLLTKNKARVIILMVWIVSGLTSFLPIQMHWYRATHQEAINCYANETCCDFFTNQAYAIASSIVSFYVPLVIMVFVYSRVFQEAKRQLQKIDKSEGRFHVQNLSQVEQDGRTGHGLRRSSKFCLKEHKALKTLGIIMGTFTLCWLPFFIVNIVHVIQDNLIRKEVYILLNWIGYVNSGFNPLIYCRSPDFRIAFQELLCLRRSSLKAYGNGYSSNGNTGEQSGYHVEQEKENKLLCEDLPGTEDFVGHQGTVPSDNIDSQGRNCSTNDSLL
Chain of D(1A) dopamine receptor (P21728 whole entry): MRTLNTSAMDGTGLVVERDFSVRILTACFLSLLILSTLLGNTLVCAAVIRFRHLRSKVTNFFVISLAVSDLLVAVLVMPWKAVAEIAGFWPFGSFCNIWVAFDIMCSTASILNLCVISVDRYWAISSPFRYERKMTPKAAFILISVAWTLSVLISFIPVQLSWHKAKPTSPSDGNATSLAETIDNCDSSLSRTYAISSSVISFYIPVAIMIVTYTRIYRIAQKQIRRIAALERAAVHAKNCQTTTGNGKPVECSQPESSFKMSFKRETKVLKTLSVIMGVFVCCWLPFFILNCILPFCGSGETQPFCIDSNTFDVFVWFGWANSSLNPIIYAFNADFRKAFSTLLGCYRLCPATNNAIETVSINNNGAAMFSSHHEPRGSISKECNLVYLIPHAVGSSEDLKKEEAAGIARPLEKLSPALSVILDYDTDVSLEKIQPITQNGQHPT
Chain of Beta-1 adrenergic receptor (P08588 whole entry): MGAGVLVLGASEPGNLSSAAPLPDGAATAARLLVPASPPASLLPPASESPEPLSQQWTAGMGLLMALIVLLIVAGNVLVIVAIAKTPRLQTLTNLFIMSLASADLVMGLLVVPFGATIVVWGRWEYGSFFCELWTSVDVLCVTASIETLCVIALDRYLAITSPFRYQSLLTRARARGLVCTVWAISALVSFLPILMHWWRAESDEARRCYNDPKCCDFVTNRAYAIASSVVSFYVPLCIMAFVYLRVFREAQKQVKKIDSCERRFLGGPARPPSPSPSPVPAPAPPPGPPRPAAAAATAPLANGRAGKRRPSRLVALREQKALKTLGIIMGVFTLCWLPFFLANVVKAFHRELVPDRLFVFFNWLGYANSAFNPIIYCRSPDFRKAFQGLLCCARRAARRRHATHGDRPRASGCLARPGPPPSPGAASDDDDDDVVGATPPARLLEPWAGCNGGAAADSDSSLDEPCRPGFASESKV

COc1ccc2[nH]cc(C(=O)OC[C@@H]3CCN4CCC[C@@H]34)c2c1
Kb [1]: 70.8 nM

O=C(NC[C@@H]1CCN2CCC[C@@H]12)c1cccn2ccnc12
Kb [1]: 178 nM

O=C(OC[C@@H]1CCN2CCC[C@@H]12)c1c[nH]c2ccc(F)cc12
Ki [2]: 10 nM
Ki [3]: 0.7 nM
Kb [1]: 3.16 nM

CCOc1cc(N)c(Cl)cc1C(=O)NC[C@@H]1CCN2CCC[C@@H]12
IC50 (D(2) dopamine receptor): 5300 nM
Ki [2]: 25 nM
EC50 [4]: 195 nM
inhibition [5]: 89%
inhibition [6]: 48%

Cn1cc(C(=O)NC[C@@H]2CCN3CCC[C@@H]23)c2ccccc21
pA2 [7]: inactive

Cn1c(C(=O)OC[C@@H]2CCN3CCC[C@@H]23)cc2ccccc21
pA2 [8]: inactive

CCc1nc(C(=O)NC[C@@H]2CCN3CCC[C@@H]23)c2ccccn12 (relative stereo)
Kb [1]: 275 nM

COc1cc(N)c(Cl)cc1C(=O)NC[C@@H]1CC[N@@+]2(C)CCC[C@@H]12
Ki [3]: 0.35 nM
EC50 [4]: 129 nM
inhibition [9]: 16%

COc1cc(N)c(Cl)cc1C(=O)N[C@H]1CCN2CCC[C@@H]1C2
EC50 [4]: 98 nM
ED50 (Canis familiaris [10]): 0.015 mg/kg
ED50 (Canis familiaris [11]; Canis lupus familiaris; Stomach): Active

Cc1cnc2c(C(=O)NC[C@@H]3CCN4CCC[C@@H]34)cc(Cl)cn12
Kb [1]: 81.3 nM

CC1(C)C(=O)N(C(=O)NC[C@@H]2CCN3CCC[C@@H]23)c2ccccc21
Kb [1]: 100 nM

CCc1cc(C(=O)NC[C@@H]2CCN3CCC[C@@H]23)c2ccccn12 (relative stereo)
pA2 [7]: inactive

COc1cc(N)c(Cl)cc1C(=O)NC[C@H]1CCN2CCC[C@H]12
IC50 (D(2) dopamine receptor): 3900 nM
inhibition [12]: 18%
EC50 [4]: 323 nM
inhibition [5]: 87%
inhibition [6]: 79%
inhibition [13]: 20%
Activity (Salmonella typhi [14]): Not Active
Activity (Salmonella typhi [15]): Not Active
Activity (Salmonella typhi [16]): Not Active
Activity (Salmonella typhi [17]): Not Active
Activity (Salmonella typhi [18]): Not Active
ED50 (Canis familiaris [10]): 0.45 mg/kg
ED50 (Canis familiaris [11]; [23]): 1 mg/kg

O=C(OC[C@@H]1CCN2CCC[C@@H]12)c1cc(Cl)cn2ccnc12
Kb [1]: 178 nM

COc1cc(N)c(Cl)cc1C(=O)NC1CCN(CCCOc2ccc(F)cc2)CC1OC (stereo not drawn) [CISAPRIDE]
IC50 [19]: > 1000 nM
IC50 (D(1A) dopamine receptor): 1700 nM
IC50 [20]: > 10000 nM
IC50 [21]: > 10000 nM
ED50 (Canis familiaris [10]): 0.056 mg/kg
ED50 (Canis familiaris [11]; [23]): 0.03 mg/kg

COc1cc(N)c(Cl)cc1C(=O)OC[C@@H]1CCN2CCC[C@@H]12
IC50 (D(2) dopamine receptor): > 10000 nM
Ki [2]: 51 nM
Ki [3]: 0.183 nM
EC50 [4]: 1.5 nM
inhibition [5]: 0%

CC(C)n1c(=O)n(C(=O)NC[C@@H]2CCN3CCC[C@@H]23)c2ccccc21 (relative stereo)
Ki [2]: 20.2 nM
Ki [3]: 7 nM
EC50 [4]: 374 nM
inhibition [5]: 87%
inhibition [13]: 62%
inhibition [22]: 0%

Reference: ChEMBL document CHEMBL1149398, “Pyrrolizidine esters and amides as 5-HT4 receptor agonists and antagonists” (J Med Chem, 2006)
